# Assay results published in publication PMC6934184, “Selective DNA-PKcs inhibition extends the therapeutic index of localized radiotherapy and chemotherapy” (The Journal of Clinical Investigation, 2019).
# Target: T1, DMPK (Homo sapiens, UniProt Q09013)
# T1 construct: purchased Thermo Fisher Scientific (Life Technologies) SelectScreen
# Test: SelectScreen LanthaScreen
# Format: binding
# Settings: read-out: % displacement
# In short: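 Percent values come from Thermo SelectScreen profiling of NU5455, combining activity and binding assays. CSF1R was run in Z'LYTE format at Km app ATP, and CAMK1 in Adapta format with ATP listed at 10.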
# T1 sequence (Q09013 whole entry): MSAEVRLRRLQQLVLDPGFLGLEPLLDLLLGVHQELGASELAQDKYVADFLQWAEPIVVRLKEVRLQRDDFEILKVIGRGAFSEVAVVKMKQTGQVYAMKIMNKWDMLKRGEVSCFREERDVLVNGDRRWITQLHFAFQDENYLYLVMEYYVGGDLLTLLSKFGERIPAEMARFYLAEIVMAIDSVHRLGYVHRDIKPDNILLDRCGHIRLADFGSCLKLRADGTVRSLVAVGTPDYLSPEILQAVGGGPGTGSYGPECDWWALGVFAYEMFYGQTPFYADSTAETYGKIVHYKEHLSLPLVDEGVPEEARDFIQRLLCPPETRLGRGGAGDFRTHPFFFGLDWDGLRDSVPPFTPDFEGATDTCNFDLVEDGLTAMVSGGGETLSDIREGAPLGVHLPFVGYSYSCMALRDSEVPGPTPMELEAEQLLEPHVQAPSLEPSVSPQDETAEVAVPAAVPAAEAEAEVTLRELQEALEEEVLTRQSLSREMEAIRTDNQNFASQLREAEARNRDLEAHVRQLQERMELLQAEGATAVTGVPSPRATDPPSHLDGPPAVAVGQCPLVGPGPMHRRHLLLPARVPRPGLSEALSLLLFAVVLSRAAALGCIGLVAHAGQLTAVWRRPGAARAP
structure (smiles),measurement,value
CN(C(=O)CN1CCOCC1)c1ccc2sc3c(-c4cccc5c(=O)cc(N6CC7CCC(C6)O7)oc45)cccc3c2c1 [NU5455],inhibition at 1 µM,-1.5%
